Assay results as given in ChEMBL document CHEMBL1133064, “1-[2-[(Heteroaryloxy)heteroaryl]carbamoyl]indolines: novel and selective 5-HT2C receptor inverse agonists with potential as antidepressant/anxiolytic agents” (Bioorg Med Chem Lett, 2000).

Columns and labels:
[1] = target: T1, 5-hydroxytryptamine receptor 2C (Homo sapiens, UniProt P28335); assay: Binding affinity towards human cloned 5-hydroxytryptamine 2C receptor of HEK293 cells by displacement of [3H]mesulergine; type: cell-based
T1 sequence (P28335 whole entry): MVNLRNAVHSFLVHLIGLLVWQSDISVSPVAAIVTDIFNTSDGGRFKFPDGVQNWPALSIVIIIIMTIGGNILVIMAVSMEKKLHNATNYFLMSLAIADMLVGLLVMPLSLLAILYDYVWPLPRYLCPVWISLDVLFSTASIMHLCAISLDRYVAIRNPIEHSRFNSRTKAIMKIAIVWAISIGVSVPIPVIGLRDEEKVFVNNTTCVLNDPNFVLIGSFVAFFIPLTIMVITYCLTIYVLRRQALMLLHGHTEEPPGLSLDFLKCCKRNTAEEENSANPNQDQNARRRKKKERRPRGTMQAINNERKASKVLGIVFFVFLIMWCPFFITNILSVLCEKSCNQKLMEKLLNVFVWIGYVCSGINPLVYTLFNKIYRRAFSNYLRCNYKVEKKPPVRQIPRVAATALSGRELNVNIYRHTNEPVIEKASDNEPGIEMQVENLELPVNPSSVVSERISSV

[2] = target: Serotonin receptor (2b and 2c) (Homo sapiens) (UniProt P41595+P28335); assay: Selectivity expressed as ratio of serotonin 5-HT2C receptor over serotonin 5-HT2B receptor; type: protein assay
[3] = target: 5-hydroxytryptamine receptor 2A (Homo sapiens, UniProt P28223); assay: Binding affinity towards human cloned 5-hydroxytryptamine 2A receptor of HEK293 cells by displacement of [3H]ketanserin; type: cell-based
Chain of 5-hydroxytryptamine receptor 2A (P28223 whole entry): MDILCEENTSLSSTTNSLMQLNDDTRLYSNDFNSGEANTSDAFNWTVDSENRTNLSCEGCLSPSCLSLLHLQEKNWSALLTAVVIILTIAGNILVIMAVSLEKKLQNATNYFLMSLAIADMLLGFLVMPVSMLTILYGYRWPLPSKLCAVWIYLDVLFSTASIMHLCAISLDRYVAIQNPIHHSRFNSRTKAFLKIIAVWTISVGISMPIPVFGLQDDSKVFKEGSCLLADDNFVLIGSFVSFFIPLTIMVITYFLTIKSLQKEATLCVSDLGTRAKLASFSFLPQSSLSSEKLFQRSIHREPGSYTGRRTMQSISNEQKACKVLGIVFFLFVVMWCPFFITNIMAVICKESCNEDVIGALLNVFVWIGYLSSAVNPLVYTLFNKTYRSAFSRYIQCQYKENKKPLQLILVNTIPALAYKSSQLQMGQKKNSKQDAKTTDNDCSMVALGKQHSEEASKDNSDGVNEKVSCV

[4] = target: 5-hydroxytryptamine receptor 2B (Homo sapiens, UniProt P41595); assay: Binding affinity towards human cloned 5-HT2B receptor of HEK293 cells by displacement of [3H]5-HT; type: cell-based
Chain of 5-hydroxytryptamine receptor 2B (P41595 whole entry): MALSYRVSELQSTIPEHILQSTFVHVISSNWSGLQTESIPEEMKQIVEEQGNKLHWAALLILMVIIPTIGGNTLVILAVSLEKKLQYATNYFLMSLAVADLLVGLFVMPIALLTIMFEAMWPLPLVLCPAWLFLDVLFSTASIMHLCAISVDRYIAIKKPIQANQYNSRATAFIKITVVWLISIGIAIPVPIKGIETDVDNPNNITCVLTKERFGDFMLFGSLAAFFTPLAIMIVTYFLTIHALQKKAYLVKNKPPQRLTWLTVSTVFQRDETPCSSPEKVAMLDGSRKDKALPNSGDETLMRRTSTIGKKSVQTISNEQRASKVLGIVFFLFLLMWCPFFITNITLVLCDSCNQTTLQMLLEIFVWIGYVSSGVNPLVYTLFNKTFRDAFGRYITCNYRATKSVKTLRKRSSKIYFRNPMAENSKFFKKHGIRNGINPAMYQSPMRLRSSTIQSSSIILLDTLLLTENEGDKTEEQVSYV

[5] = target: Serotonin 2 receptors; 5-HT2a & 5-HT2c (Homo sapiens) (UniProt P28223+P28335); assay: Selectivity expressed as ratio of serotonin 5-HT2C receptor over serotonin 5-HT2A receptor; type: protein assay
Chain of Serotonin 2 receptors; 5-HT2a & 5-HT2c (Homo sapiens) (P28223 whole entry, looked up, one chain of several): as the sequence (P28223 whole entry) above

Rattus norvegicus [6] = assay: Percent reversal of mCPP induced hypolocomotion after peroral administration at 5 mg/kg in rat; type: functional; conditions: route oral
Rattus norvegicus [7] = assay: Dose required to reverse mCPP induced hypolocomotion by 50% at 7 mg/kg, ip administration 30 min pretest; type: functional; conditions: 0.5 h, route intraperitoneal, read-out: ID50 (the source's name)

Compound | Ki [1] | Selectivity [2] | Ki [3] | Ki [4] | Selectivity [5] | Reversal (Rattus norvegicus [6]) | ED50 (Rattus norvegicus [7])
Cc1ncccc1Oc1ccc(NC(=O)N2CCc3ccc(C(F)(F)F)cc32)cn1 | 5.01 nM | 80 | 158 nM | 398 nM | 30 | – | –
Cc1ncccc1Oc1ccc(NC(=O)N2CCc3c(Br)cccc32)cn1 | 15.8 nM | > 130 | > 6310 nM | > 2000 nM | > 400 | 3% | –
Cc1cc2c(cc1Cl)N(C(=O)Nc1ccc(Oc3cnccc3Cl)nc1)CC2 | 0.501 nM | 25 | 15.8 nM | 12.6 nM | 30 | – | –
Cc1cc2c(cc1Cl)N(C(=O)Nc1cnc(Oc3cccnc3C)nc1)CC2 | 3.16 nM | 20 | > 631 nM | 63.1 nM | > 200 | – | 3.7 mg/kg
Cc1cc2c(cc1C(F)(F)F)N(C(=O)Nc1ccc(Oc3cccnc3C)nn1)CC2 | 3.16 nM | 40 | 398 nM | 126 nM | 130 | – | 1.2 mg/kg
Cc1ncccc1Oc1ccc(NC(=O)N2CCc3cc(F)c(Cl)cc32)cn1 | 6.31 nM | 100 | 501 nM | 631 nM | 80 | 16% | –
Cc1ncccc1Oc1ccc(NC(=O)N2CCc3cc(Cl)c(Cl)cc32)cn1 | 2 nM | 160 | 251 nM | 316 nM | 130 | 32% | –
Cc1cc2c(cc1Cl)N(C(=O)Nc1ccc(Oc3cccnc3Cl)nc1)CC2 | 1.26 nM | 40 | 100 nM | 50.1 nM | 80 | – | 4.5 mg/kg
Cc1cc2c(cc1Cl)N(C(=O)Nc1cnc(Oc3cccnc3C)c(C)c1)CC2 | 1.58 nM | 20 | 126 nM | 31.6 nM | 80 | – | 0.8 mg/kg
Cc1ncccc1Oc1ccc(NC(=O)N2CCc3c2cc(Cl)c(C)c3Cl)cn1 | 1 nM | 40 | 63.1 nM | 39.8 nM | 60 | 85% | –
Cc1ncccc1Oc1ccc(NC(=O)N2CCc3c2cc(C(F)(F)F)c2c3CCO2)cn1 | 1.26 nM | 50 | 501 nM | 63.1 nM | 400 | – | 9 mg/kg
Cc1cc2c(cc1Cl)N(C(=O)Nc1ccc(Oc3cccnc3C)nc1)CC2 | – | 100 | – | – | 160 | – | –
Cc1cc2c(cc1Cl)N(C(=O)Nc1cnc(Oc3cccnc3C)c(Cl)c1)CC2 | 0.631 nM | 30 | 126 nM | 20 nM | 200 | – | > 5 mg/kg
Cc1ncccc1Oc1ccc(NC(=O)N2CCc3cc(Cl)ccc32)cn1 | 6.31 nM | 320 | > 10000 nM | 2000 nM | > 1600 | 40% | –
Cc1ncccc1Oc1ccc(NC(=O)N2CCc3cc(C(F)(F)F)ccc32)cn1 | 3.98 nM | 160 | 2510 nM | 631 nM | 630 | – | 2.1 mg/kg
COc1cc2c(cc1C(F)(F)F)N(C(=O)Nc1ccc(Oc3cccnc3C)nc1)CC2 | – | 80 | – | – | 1300 | – | –
Cc1cc2c(cc1C(F)(F)F)N(C(=O)Nc1ccc(Oc3cccnc3C)nc1)CC2 [SB-243213] | – | 100 | – | – | 160 | – | 1 mg/kg
Cc1cc2c(cc1Br)N(C(=O)Nc1ccc(Oc3cccnc3C)nc1)CC2 | 0.794 nM | 80 | 158 nM | 63.1 nM | 200 | 49% | –
Cc1ncccc1Oc1ccc(NC(=O)N2CCc3cc(Br)c(C(F)(F)F)cc32)cn1 | 1.26 nM | 80 | 126 nM | 100 nM | 100 | – | 2 mg/kg
Cc1ncccc1Oc1ccc(NC(=O)N2CCc3cc(Br)ccc32)cn1 | 3.16 nM | 200 | > 3980 nM | 631 nM | > 1300 | 10% | –
Cc1ncccc1Oc1ccc(NC(=O)N2CCc3cc(F)ccc32)cn1 | 39.8 nM | 130 | > 10000 nM | 5010 nM | > 250 | 4% | –

Compound | Ki [1] | Selectivity [2] | Ki [3] | Ki [4] | Selectivity [5] | Reversal (Rattus norvegicus [6]) | ED50 (Rattus norvegicus [7])
CCc1cc2c(cc1C(F)(F)F)N(C(=O)Nc1ccc(Oc3cccnc3C)nc1)CC2 | 2.51 nM | 50 | 501 nM | 126 nM | 200 | 12% | –
Cc1cc2c(cc1Cl)N(C(=O)Nc1ccc(Oc3cccnc3C(C)C)nc1)CC2 | 126 nM | 2 | 794 nM | 200 nM | 6 | – | –
Cc1ncccc1Oc1ccc(NC(=O)N2CCc3ccc(Cl)cc32)cn1 | 3.98 nM | 200 | 316 nM | 794 nM | 80 | 3% | –
Cc1cc2c(cc1Cl)N(C(=O)Nc1ccc(Oc3cnccc3C)nc1)CC2 | 1 nM | 30 | 7.94 nM | 31.6 nM | 8 | – | –
CSc1cc2c(cc1C(F)(F)F)N(C(=O)Nc1ccc(Oc3cccnc3C)nc1)CC2 | 0.398 nM | 100 | 251 nM | 39.8 nM | 630 | 31% | –
Cc1cc2c(cc1Cl)N(C(=O)Nc1ccc(Oc3cccnc3C)nn1)CC2 | 2 nM | 80 | 1580 nM | 158 nM | 800 | – | 1.6 mg/kg
Cc1ncccc1Oc1ccc(NC(=O)N2CCc3c(Cl)cccc32)cn1 | 15.8 nM | 160 | > 10000 nM | 2510 nM | > 630 | 6% | –
Cc1cc2c(cc1C(F)(F)F)N(C(=O)Nc1cnc(Oc3cccnc3C)c(Cl)c1)CC2 | 1.58 nM | 25 | 251 nM | 39.8 nM | 160 | – | > 5 mg/kg
Cc1ncccc1Oc1ccc(NC(=O)N2CCc3ccccc32)cn1 | 100 nM | 20 | > 10000 nM | 2000 nM | > 100 | – | –
Cc1ncccc1Oc1ccc(NC(=O)N2CCc3c2cccc3C(F)(F)F)cn1 | 200 nM | > 50 | > 10000 nM | > 10000 nM | > 50 | – | –
Cc1ncccc1Oc1ccc(NC(=O)N2CCc3c2ccc(Cl)c3Cl)cn1 | 3.16 nM | 160 | 3160 nM | 501 nM | 1000 | 4% | –
CCCc1ncccc1Oc1ccc(NC(=O)N2CCc3cc(C)c(Cl)cc32)cn1 | 1.58 nM | 60 | 158 nM | 100 nM | 100 | 18% | –
COc1cc2c(cc1C(F)(F)F)N(C(=O)Nc1cnc(Oc3cccnc3C)cc1C)CC2 | 200 nM | 1.3 | 631 nM | 251 nM | 3 | – | –
Cc1ccc2c(c1Br)CCN2C(=O)Nc1ccc(Oc2cccnc2C)nc1 | 1.58 nM | 160 | > 1000 nM | 251 nM | > 630 | 0% | –
Cc1cc2c(cc1F)N(C(=O)Nc1ccc(Oc3cccnc3C)nc1)CC2 | 1.58 nM | 100 | 794 nM | 158 nM | 500 | 46% | –
Cc1ncccc1Oc1ccc(NC(=O)N2CCc3cc(I)ccc32)cn1 | 3.16 nM | 100 | 1580 nM | 316 nM | 500 | 14% | –
Cc1cc2c(cc1Cl)CCN2C(=O)Nc1ccc(Oc2cccnc2C)nc1 | 1.26 nM | 100 | 158 nM | 126 nM | 130 | 7.3% | –
Cc1cc2c(cc1C(F)(F)F)N(C(=O)Nc1ccc(Oc3cncnc3C)nc1)CC2 | 2 nM | 6 | 79.4 nM | 12.6 nM | 40 | – | –
Cc1cc2c(cc1C(F)(F)F)N(C(=O)Nc1cnc(Oc3cccnc3C)cn1)CC2 | 2 nM | 40 | 631 nM | 79.4 nM | 320 | – | 3.6 mg/kg
CCc1ncccc1Oc1ccc(NC(=O)N2CCc3cc(C)c(Cl)cc32)cn1 | 2 nM | 25 | 200 nM | 50.1 nM | 100 | – | 1.8 mg/kg
